Source: PubChem BioAssay (NCI)
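Protocol summary: plate cells (96-well), add compound at 5 concentrations, incubate 48 h, interpolate endpoints linearly. TGI: concentration producing complete growth inhibition.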

How the values were obtained:
Experiment in all cases: growth of human tumour cells (NCI), 48 h
UO-31 renal = tested on: UO-31 renal
K-562 leukemia = tested on: K-562 leukemia
MCF7 breast = tested on: MCF7 breast
MALME-3M melanoma = tested on: MALME-3M melanoma
MDA-MB-435 = tested on: MDA-MB-435
SK-MEL-2 melanoma = tested on: SK-MEL-2 melanoma
NCI-H460 lung = tested on: NCI-H460 lung
SK-MEL-5 melanoma = tested on: SK-MEL-5 melanoma
RXF 393 renal = tested on: RXF 393 renal
786-0 renal = tested on: 786-0 renal
NCI-H23 lung = tested on: NCI-H23 lung
A498 renal = tested on: A498 renal
CAKI-1 renal = tested on: CAKI-1 renal
HOP-62 NSCLC = tested on: HOP-62 NSCLC
NCI-H522 lung = tested on: NCI-H522 lung
PC-3 prostate = tested on: PC-3 prostate
SW-620 colon = tested on: SW-620 colon
OVCAR-3 ovarian = tested on: OVCAR-3 ovarian

Compound	TGI (UO-31 renal) [µM]	TGI (K-562 leukemia) [µM]	TGI (MCF7 breast) [µM]	TGI (MALME-3M melanoma) [µM]	TGI (MDA-MB-435) [µM]	TGI (SK-MEL-2 melanoma) [µM]	TGI (NCI-H460 lung) [µM]	TGI (SK-MEL-5 melanoma) [µM]	TGI (RXF 393 renal) [µM]	TGI (786-0 renal) [µM]	TGI (NCI-H23 lung) [µM]	TGI (A498 renal) [µM]	TGI (CAKI-1 renal) [µM]	TGI (HOP-62 NSCLC) [µM]	TGI (NCI-H522 lung) [µM]	TGI (PC-3 prostate) [µM]	TGI (SW-620 colon) [µM]	TGI (OVCAR-3 ovarian) [µM]
O=C(c1ccccc1)c1ccc2nc3n(c2c1)C(c1c(F)cccc1F)SC3 (stereo not drawn)	56.5	> 100	50.5	46.7	3.96	31.2	52.2	18.1	72.8	47.8	> 61.7	13.5	44.4	52.2	6.14	> 80.7	> 100	24.1
COCC(N=CN1CCCc2ccccc2[C@@H]1CCCCl)C(C)(C)C (stereo partly drawn)	33.2	14.2	4.28	6.27	26.4	38.3	97.2	9.35	32.5	28.1	21.1	33.5	31.9	52.9	21.1	91.4	57.6	0.729
COc1cc(OCc2nc3ccccc3n3cccc23)cc(OC)c1OC	> 89.6	23.8	37.6	> 74.4	> 52.4	> 100	> 100	9.35	> 100	> 74.3	> 100	> 100	> 100	> 100	> 65.9	> 100	> 54.5	> 60.9
COc1nc(C)nc2sc3c(c12)CCCC3	> 100	> 100	> 100	> 100	> 100	> 100	> 100	> 100	> 100	> 100	> 100	> 100	> 100	> 100	> 100	> 100	> 100	> 100
CN1CCC2(CC1)SC[C@H]1C(=O)N(c3ccc(Cl)cc3)C(=O)N12	> 100	> 100	> 100	> 100	> 100	> 100	> 100	> 100	> 100	> 100	> 100	86.3	> 100	> 100	> 100	> 100	> 100	> 100
CC[C@](O)(CC(=O)O[C@H]1C(=O)O[C@@H]2C[C@H]3C(C)=CC(=O)[C@@H](O)[C@]3(C)[C@H]3[C@@]4(O)OC[C@]32[C@@H]1[C@@H](C)[C@H]4O)C(C)C	0.0447	< 0.01	< 0.0392	< 0.01	< 0.01	< 0.01	< 0.01	< 0.01	< 0.01	< 0.01	< 0.01	< 0.01	0.0398	< 0.01	< 0.01	< 0.01	< 0.01	< 0.01
CCN(CC)c1cc2c3c(c1)CCCN3CCC2	> 10	> 10	> 10	> 10	> 10	> 10	> 10	> 10	> 10	> 10	> 10	> 10	> 10	> 10	> 10	> 10	> 10	> 10
CC(C)=CCC[C@@H](C)C1=C(O)C(O)C(C)=C2N=C(c3ccccc3)C(=O)OC21 (stereo partly drawn)	14.6	> 25	> 25	15.4	> 25	6.75	> 17	6.32	> 17.1	> 20.5	6.15	> 13.1	9.89	8.5	1.9	> 25	> 25	> 25
COc1ccc2cc(CNCCCCCCCCCCCCNCc3ccc4cc(OC)ccc4c3)ccc2c1	35.8	> 50	31.9	31.8	> 55.5	41.1	35.8	> 54	28.7	30.1	34.3	31.9	47.3	39.2	33.8	> 55.4	> 51.9	37.1
C=C1C(=O)C23CC1C[C@H](OC(C)=O)[C@H]2C1(C)C(OC(C)=O)C[C@H](O)C(C)(C)[C@H]1C(=O)[C@@H]3OC(C)=O (stereo partly drawn)	9.75	> 21	14	5.15	11.4	25.9	33.4	27.4	9.75	9.64	15.2	29.7	8.17	42.9	3.48	24.6	3.6	12.7
O=C1CC(NC(=O)C(F)(F)F)c2c1csc2Br (stereo not drawn)	> 100	> 100	9.85	> 100	> 100	> 100	> 100	> 100	47.9	83.1	> 100	> 100	30.5	> 100	> 100	> 100	> 100	> 100
